Experimental data published in publication PMC10510381, “Alkyne as a Latent Warhead to Covalently Target SARS-CoV-2 Main Protease” (Journal of Medicinal Chemistry, 2023).
Where “and” joins values, the source holds several entries; their conditions need not be identical. Equal values may be shown once. Entries after “also recorded” stand apart in the source; their conditions may differ. Read-outs that look alike come from different tables or passages of the source. Residues, ends and D or L forms follow the SMILES beside them. *: point of attachment. Cbz = O=C(OCc1ccccc1)*

How the values were obtained:
[1] = tested on: Hela-ACE2 cells
[2] = target: SARS-CoV-2 M^pro (Severe acute respiratory syndrome coronavirus 2, UniProt P0DTD1); experiment: biochemical; conditions: for inhibition against M^pro: up to 80 μM
[3] = tested on: SARS-CoV-2; format: cell-based
[4] = target: recombinant M^pro (Severe acute respiratory syndrome coronavirus 2, UniProt P0DTD1); format: binding
[5] = target: M^pro expressed in HEK293T cells (Severe acute respiratory syndrome coronavirus 2, UniProt P0DTD1); format: cell-based; conditions: HEK293T transiently transfected with M^pro
[6] = tested on: HEK293T proteome; experiment: Proteomic labeling of parental HEK293T cells (in-gel fluorescence); format: cell-based, human
[7] = tested on: HeLa proteome; format: cell-based, human
[8] = 15-min treatment of M^pro (0.5 μM), FRET substrate 20 μM, both duplicate values given, read-out: IC50
[9] = 15-min pre-incubation, read-out: IC50 (average of duplicate)

CC(C)(C)[C@H](NC(=O)C(F)(F)F)C(=O)N1C[C@H]2[C@@H]([C@H]1C(=O)N[C@H](C#N)C[C@@H]1CCNC1=O)C2(C)C [Compound 4g, nirmatrelvir, reference compound]
cytotoxicity ([1]; up to the highest concentration tested, 10 μM, 20 h): no notable cytotoxicity

CC(C)C[C@H](NC(=O)OCc1ccccc1)C(=O)N[C@H](C#N)CCC(N)=O [Compound 1g, O=C(N[C@@H](CCC(N)=O)C#N)[C@H](CC(C)C)NC(OCC1=CC=CC=C1)=O]
IC50 [2, 8]: > 80 µM
inhibition against M^pro [2]: failed to cause significant inhibition

CC(C)(C)[C@H](NC(=O)C(F)(F)F)C(=O)N1C[C@H]2[C@@H]([C@H]1C(=O)N[C@@H](C[C@@H]1CCNC1=O)C(N)=O)C2(C)C [Compound 4h, O=C1NCC[C@H]1C[C@@H](C(N)=O)NC([C@H]2N(C([C@@H](NC(C(F)(F)F)=O)C(C)(C)C)=O)C[C@H]3[C@@H]2C3(C)C)=O]
IC50 [2, 8]: > 80 µM

C#C[C@H](CCC(N)=O)NC(=O)[C@H](CC(C)C)NC(=O)OCc1ccccc1 [Compound 1d, O=C(N[C@@H](CCC(N)=O)C#C)[C@H](CC(C)C)NC(OCC1=CC=CC=C1)=O]
IC50 [2, 8]: 35 µM and 60 µM

CNS(=O)(=O)/C=C/[C@H](CCC(N)=O)NC(=O)[C@H](CC(C)C)NC(=O)OCc1ccccc1 [Compound 1c, O=C(N[C@@H](CCC(N)=O)/C=C/S(=O)(NC)=O)[C@H](CC(C)C)NC(OCC1=CC=CC=C1)=O]
IC50 [2, 9]: 47 µM
IC50 [2, 8]: 39 µM and 55 µM

CC(C)(C)[C@H](NC(=O)C(F)(F)F)C(=O)N1C[C@H]2[C@@H]([C@H]1C(=O)N[C@H](C#CC(F)(F)F)C[C@@H]1CCNC1=O)C2(C)C [Compound 4i, O=C1NCC[C@H]1C[C@@H](C#CC(F)(F)F)NC([C@H]2N(C([C@@H](NC(C(F)(F)F)=O)C(C)(C)C)=O)C[C@H]3[C@@H]2C3(C)C)=O]
antiviral activity [3]: strong, dose-dependent antiviral activity
anti-COVID activity ([3]; sub-micromolar concentrations, HeLa-ACE2, 24 h): significant anti-COVID activity
cytotoxicity [1]: no notable cytotoxicity
concentration sufficient to abolish labeling of M^pro ([4]; competition with 10 μM Alk-4d): 1 µM

CC(C)C[C@H](NC(=O)OCc1ccccc1)C(=O)N[C@@H](CCC(N)=O)C(=O)C(=O)NCc1ccccc1 [Compound 1f, O=C(N[C@@H](CCC(N)=O)C(C(NCC1=CC=CC=C1)=O)=O)[C@H](CC(C)C)NC(OCC2=CC=CC=C2)=O]
IC50 [2, 8]: > 80 µM
inhibition against M^pro [2]: failed to cause significant inhibition

CC(C)C[C@H](NC(=O)OCc1ccccc1)C(=O)N[C@H](/C=C/C(=O)OCc1ccccc1)CCC(N)=O [Compound 1a, O=C(N[C@@H](CCC(N)=O)/C=C/C(OCC1=CC=CC=C1)=O)[C@H](CC(C)C)NC(OCC2=CC=CC=C2)=O]
IC50 [2, 8]: 2.5 µM and 3.9 µM

C#C[C@H](CCC(N)=O)NC(=O)[C@H](CC(C)C)NC(=O)c1cc2c(OC)cccc2[nH]1 [Compound 2d, O=C(N[C@@H](CCC(N)=O)C#C)[C@H](CC(C)C)NC(C1=CC2=C(C=CC=C2OC)N1)=O]
IC50 ([2]; 15-min pre-incubation, both duplicate values given, read-out: IC50 uM (15-min pre-incubation)): 22 µM
IC50 [2, 8]: 22 µM

CC(C)C[C@H](NC(=O)OCc1ccccc1)C(=O)N[C@H](/C=C/S(C)(=O)=O)CCC(N)=O [Compound 1b, O=C(N[C@@H](CCC(N)=O)/C=C/S(C)(=O)=O)[C@H](CC(C)C)NC(OCC1=CC=CC=C1)=O]
IC50 [2, 8]: 12 µM and 18 µM

CC(C)C[C@H](NC(=O)OCc1ccccc1)C(=O)N[C@H](C=O)CCC(N)=O [Compound 1e, O=C(N[C@@H](CCC(N)=O)C([H])=O)[C@H](CC(C)C)NC(OCC1=CC=CC=C1)=O] (Cbz-Leu-Gln-aldehyde)
IC50 [2, 8]: > 80 µM
inhibition against M^pro [2]: failed to cause significant inhibition

C#CC[C@H](NC(=O)C(F)(F)F)C(=O)N1C[C@H]2[C@@H]([C@H]1C(=O)N[C@H](C#C)C[C@@H]1CCNC1=O)C2(C)C [Alk-4d, O=C1NCC[C@H]1C[C@@H](C#C)NC([C@H]2N(C([C@@H](NC(C(F)(F)F)=O)CC#C)=O)C[C@H]3[C@@H]2C3(C)C)=O]
probe concentration for efficient labeling of M^pro ([4]; 1 h treatment): above 1 μM
probe concentration reaching saturation of M^pro labeling ([4]; 1 h treatment): 3 µM
labeling of M^pro in live cells [5]: dose-dependent labeling
proteome labeling, HEK293T cells ([6]; 1 hour, up to 30 μM): little labeling; also recorded: did not label any proteins
proteome labeling, HEK293T cells ([6]; 5 h, all tested concentrations): little proteome labeling
proteome labeling, HeLa cells [7]: little labeling

CC(C)(C)[C@H](NC(=O)C(F)(F)F)C(=O)N1C[C@H]2[C@@H]([C@H]1C(=O)N[C@H](C=O)C[C@@H]1CCNC1=O)C2(C)C [Compound 4e, O=C1NCC[C@H]1C[C@@H](C([H])=O)NC([C@H]2N(C([C@@H](NC(C(F)(F)F)=O)C(C)(C)C)=O)C[C@H]3[C@@H]2C3(C)C)=O]
IC50 [2, 8]: 0.29 µM and 0.3 µM

C#CC[C@H](NC(=O)C(F)(F)F)C(=O)N1C[C@H]2[C@@H]([C@H]1C(=O)N[C@H](C#CC(F)(F)F)C[C@@H]1CCNC1=O)C2(C)C [Alk-4i, O=C1NCC[C@H]1C[C@@H](C#CC(F)(F)F)NC([C@H]2N(C([C@@H](NC(C(F)(F)F)=O)CC#C)=O)C[C@H]3[C@@H]2C3(C)C)=O]
lowest concentration tested, giving intense labeling of M^pro [4]: 300 nM
incubation time to label M^pro near saturation ([4]; time-course): 5 min
proteome labeling, HEK293T cells ([6]; 5 h, 10 μM): significant labeling

COc1cccc2[nH]c(C(=O)N[C@@H](CC(C)C)C(=O)N[C@H](C#N)CCC(N)=O)cc12 [Compound 2g, O=C(N[C@@H](CCC(N)=O)C#N)[C@H](CC(C)C)NC(C1=CC2=C(C=CC=C2OC)N1)=O]
IC50 [2, 8]: 29 µM and 30 µM

C#C[C@H](C[C@@H]1CCNC1=O)NC(=O)[C@H](CC(C)C)NC(=O)c1cc2c(OC)cccc2[nH]1 [Compound 3d, O=C(N[C@@H](C[C@H]1C(NCC1)=O)C#C)[C@H](CC(C)C)NC(C2=CC3=C(C=CC=C3OC)N2)=O]
IC50 [2, 9]: ~7 µM
IC50 [2, 8]: 10 µM and 4.4 µM
